How the values were obtained:
Assay type in all cases: in vivo
[1] = tested on: johnsongrass (Sorghum halepense, SORHA); assay: Greenhouse herbicide screen, post-emerge application, phytotoxicity rating; settings: POST emergent, 14 days after application, scale 0-100
Procedure, shortened: (§1)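 Sown 1 d (pre) or 8–21 d (post) ahead; sprayed 15–1000 g ai/ha in acetone, 187 l/ha; nozzle 40–45 cm above canopy/soil; scored 0–100 at day 14.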

[2] = tested on: common ragweed (Ambrosia artemisiifolia L., AMBEL); assay: as above; settings: POST emergent, 14 days after application, scale 0-100
Procedure, shortened: as §1

[3] = tested on: green foxtail (Setaria viridis, SETVI); assay: as above; settings: POST emergent, 14 days after application, scale 0-100
Procedure, shortened: as §1

[4] = tested on: sicklepod (Cassia obtusifolia, CASOB); assay: as above; settings: POST emergent, 14 days after application, scale 0-100
Procedure, shortened: as §1

[5] = tested on: ivyleaf morningglory (Ipomoea hederacea, IPOHE); assay: as above; settings: POST emergent, 14 days after application, scale 0-100
Procedure, shortened: as §1

[6] = tested on: velvetleaf (Abutilon theophrasti, ABUTH); assay: as above; settings: POST emergent, 14 days after application, scale 0-100
Procedure, shortened: as §1

[7] = tested on: large crabgrass (Digitaria sanguinalis, DIGSA); assay: as above; settings: POST emergent, 14 days after application, scale 0-100
Procedure, shortened: as §1

[8] = tested on: lambsquarters (Chenopodium album, CHEAL); assay: as above; settings: POST emergent, 14 days after application, scale 0-100
Procedure, shortened: as §1

[9] = tested on: redroot pigweed (Amaranthus retrofiexus, AMARE); assay: as above; settings: POST emergent, 14 days after application
Procedure, shortened: as §1

[10] = tested on: barnyardgrass (Echinochloa crus-galli, ECHCG); assay: as above; settings: POST emergent, 14 days after application, scale 0-100
Procedure, shortened: as §1

[11] = tested on: cocklebur (Xanthium strumarium, XANST); assay: as above; settings: POST emergent, 14 days after application, scale 0-100
Procedure, shortened: as §1

[12] = tested on: field corn (Zea mays L., var. Dekalb 535, CORN); assay: Greenhouse herbicide screen, pre-emerge application, crop damage rating; settings: PRE emergent, 14 days after application, rating scale 0-100
Source text: (§2) A standard greenhouse herbicide activity screening system was used to evaluate the herbicidal efficacy and crop safety of these test compounds. Seven broadleaf weed species including redroot pigweed (Amaranthus retrofiexus, AMARE), velvetleaf (Abutilon theophrasti, ABUTH), sicklepod (Cassia obtusifolia, CASOB), ivyleaf morningglory (Ipomoea hederacea, IPOHE), lambsquarters (Chenopodium album, CHEAL), common ragweed (Ambrosia artemisiifolia L., AMBEL), and cocklebur (Xanthium strumarium, XANST) were used as test species. Four grass weed species including green foxtail (Setaria viridis, SETVI), barnyardgrass (Echinochloa crus-galli, ECHCG), johnsongrass (Sorghum halepense, SORHA), and large crabgrass (Digitaria sanguinalis, DIGSA) were also used. In addition, four crop species, field corn (Zea mays L., var. Dekalb 535, CORN), soybean (Glycine max L., var. Pella 86, SOY), upland rice (Oryza sp., var.Cocodrie, RICE) and wheat (Triticum aestivum L.) were included.
(§3) All plants were grown in 10 cm square plastic pots which were filled with a sandy loam soil mix. For pre-emerge tests, seeds were planted one day prior to application of the test compounds. For post-emerge tests, seeds were planted 8-21 days prior to the test to allow emergence and good foliage development prior to application of the test substances. At the time of the post-emerge application, plants of all species were usually at the 2-3 leaf stage of development.
(§4) All test compounds were dissolved in acetone and applied to the test units in a volume of 187 l/ha. Test materials were applied at rates ranging from 15 g ai/ha to 1000 g ai/ha using a track sprayer equipped with a TJ8001E even flow flat fan spray nozzle. Plants were arranged on a shelf so that the top of the canopy (post-emerge) or top of the soil surface (pre-emerge) was 40-45 cm below the nozzle. Pressurized air was used to force the test solution through the nozzle as it was mechanically advanced (via electrically driven chain drive) over the top of all test plants/pots. This application simulates a typical commercial field herbicide application.
(§5) Pre-emergence tests were top watered immediately after treatment to incorporate the test materials, then routinely top-watered for normal growth. Post-emerge test units were always bottom-watered.
(§6) At 14 days after application of the test materials, phytotoxicity ratings were recorded. A rating scale of 0-100 was used as previously described in Research Methods in Weed Science, 2nd edition, B. Truelove, Ed., Southern Weed Science Society, Auburn University, Auburn, Ala., 1977. Briefly, “0” corresponds to no damage and “100” corresponds to complete death of all plants in the test unit. This scale was used both to determine efficacy against weed species and damage to crop species. Herbicide activity data for various compounds of this invention, which are shown by compound No. in Tables 1-12, are shown in Tables 13 and 14.

[13] = tested on: upland rice (Oryza sp., var.Cocodrie, RICE); assay: as above; settings: PRE emergent, 14 days after application, rating scale 0-100
Source text: as §2, §3, §4, §5, §6

[14] = tested on: field corn (Zea mays L., var. Dekalb 535, CORN); assay: Greenhouse herbicide screen, post-emerge application, crop damage rating; settings: POST emergent, 14 days after application, scale 0-100
Source text: as §2, §3, §4, §5, §6

[15] = tested on: upland rice (Oryza sp., var.Cocodrie, RICE); assay: as above; settings: POST emergent, 14 days after application, scale 0-100
Source text: as §2, §3, §4, §5, §6

[16] = tested on: johnsongrass (Sorghum halepense, SORHA); assay: Greenhouse herbicide screen, pre-emerge application, phytotoxicity rating; settings: PRE emergent, 14 days after application, rating scale 0-100
Procedure, shortened: as §1

[17] = tested on: common ragweed (Ambrosia artemisiifolia L., AMBEL); assay: as above; settings: PRE emergent, 14 days after application, rating scale 0-100
Procedure, shortened: as §1

[18] = tested on: green foxtail (Setaria viridis, SETVI); assay: as above; settings: PRE emergent, 14 days after application, rating scale 0-100
Procedure, shortened: as §1

[19] = tested on: sicklepod (Cassia obtusifolia, CASOB); assay: as above; settings: PRE emergent, 14 days after application, rating scale 0-100
Procedure, shortened: as §1

[20] = tested on: ivyleaf morningglory (Ipomoea hederacea, IPOHE); assay: as above; settings: PRE emergent, 14 days after application, rating scale 0-100
Procedure, shortened: as §1

[21] = tested on: velvetleaf (Abutilon theophrasti, ABUTH); assay: as above; settings: PRE emergent, 14 days after application, rating scale 0-100
Procedure, shortened: as §1

[22] = tested on: large crabgrass (Digitaria sanguinalis, DIGSA); assay: as above; settings: PRE emergent, 14 days after application, rating scale 0-100
Procedure, shortened: as §1

[23] = tested on: lambsquarters (Chenopodium album, CHEAL); assay: as above; settings: PRE emergent, 14 days after application, rating scale 0-100
Procedure, shortened: as §1

[24] = tested on: redroot pigweed (Amaranthus retrofiexus, AMARE); assay: as above; settings: PRE emergent, 14 days after application, rating scale 0-100
Procedure, shortened: as §1

[25] = tested on: barnyardgrass (Echinochloa crus-galli, ECHCG); assay: as above; settings: PRE emergent, 14 days after application, rating scale 0-100
Procedure, shortened: as §1

[26] = tested on: cocklebur (Xanthium strumarium, XANST); assay: as above; settings: PRE emergent, 14 days after application, rating scale 0-100
Procedure, shortened: as §1

In the case of CN(NC(=O)c1cc(-n2c(=O)cc(C(F)(F)F)n(C)c2=O)c(F)cc1Cl)c1ccccc1 [Compound 1-9], the “phytotoxicity rating SORHA” value ([1]; 63 g ai/ha) was 75, the “phytotoxicity rating SORHA” value ([1]; 250 g ai/ha) was 99 and the “phytotoxicity rating AMBEL” value ([2]; 63 g ai/ha) was 99. For the same compound, the “phytotoxicity rating AMBEL” value ([2]; 250 g ai/ha) was 100, the “phytotoxicity rating SETVI” value ([3]; 63 g ai/ha) was 60 and the “phytotoxicity rating SETVI” value ([3]; 250 g ai/ha) was 95. The “phytotoxicity rating CASOB” value ([4]; 63 g ai/ha) was 80, the “phytotoxicity rating CASOB” value ([4]; 250 g ai/ha) was 95 and the “phytotoxicity rating IPOHE” value ([5]; 63 g ai/ha) was 100. The “phytotoxicity rating IPOHE” value ([5]; 250 g ai/ha) was 100, the “phytotoxicity rating ABUTH” value ([6]; 63 g ai/ha) was 100 and the “phytotoxicity rating ABUTH” value ([6]; 250 g ai/ha) was 100. For the same compound, the “phytotoxicity rating DIGSA” value ([7]; 63 g ai/ha) was 70, the “phytotoxicity rating DIGSA” value ([7]; 250 g ai/ha) was 95 and the “phytotoxicity rating CHEAL” value ([8]; 63 g ai/ha) was 100. For the same compound, the “phytotoxicity rating CHEAL” value ([8]; 250 g ai/ha) was 100, the “phytotoxicity rating AMARE” value ([9]; 63 g ai/ha, scale 0-100 (0 no damage, 100 complete death)) was 100 and the “phytotoxicity rating AMARE” value ([9]; 250 g ai/ha, scale 0-100) was 100. The “phytotoxicity rating ECHCO” value ([10]; 63 g ai/ha) was 98, the “phytotoxicity rating ECHCO” value ([10]; 250 g ai/ha) was 100 and the “phytotoxicity rating XANST” value ([11]; 63 g ai/ha) was 100. The “phytotoxicity rating XANST” value ([11]; 250 g ai/ha) was 100, the “crop damage rating CORN” value ([12]; 63 g ai/ha) was 10 and the “crop damage rating CORN” value ([12]; 250 g ai/ha) was 75. For the same compound, the “crop damage rating RICE” value ([13]; 63 g ai/ha) was 0, the “crop damage rating RICE” value ([13]; 250 g ai/ha) was 45 and the “crop damage rating CORN” value ([14]; 63 g ai/ha) was 75. For the same compound, the “crop damage rating CORN” value ([14]; 250 g ai/ha) was 100, the “crop damage rating RICE” value ([15]; 63 g ai/ha) was 45 and the “crop damage rating RICE” value ([15]; 250 g ai/ha) was 50. The “phytotoxicity rating SORHA” value ([16]; 63 g ai/ha) was 60, the “phytotoxicity rating SORHA” value ([16]; 250 g ai/ha) was 99 and the “phytotoxicity rating AMBEL” value ([17]; 63 g ai/ha) was 50. For the same compound, the “phytotoxicity rating AMBEL” value ([17]; 250 g ai/ha) was 99, the “phytotoxicity rating SETVI” value ([18]; 63 g ai/ha) was 40 and the “phytotoxicity rating SETVI” value ([18]; 250 g ai/ha) was 80. The “phytotoxicity rating CASOB” value ([19]; 63 g ai/ha) was 30, the “phytotoxicity rating CASOB” value ([19]; 250 g ai/ha) was 90 and the “phytotoxicity rating IPOHE” value ([20]; 63 g ai/ha) was 60. The “phytotoxicity rating IPOHE” value ([20]; 250 g ai/ha) was 100, the “phytotoxicity rating ABUTH” value ([21]; 63 g ai/ha) was 95 and the “phytotoxicity rating ABUTH” value ([21]; 250 g ai/ha) was 100. For the same compound, the “phytotoxicity rating DIGSA” value ([22]; 63 g ai/ha) was 50, the “phytotoxicity rating DIGSA” value ([22]; 250 g ai/ha) was 70 and the “phytotoxicity rating CHEAL” value ([23]; 63 g ai/ha) was 99. The “phytotoxicity rating CHEAL” value ([23]; 250 g ai/ha) was 100, the “phytotoxicity rating AMARE” value ([24]; 63 g ai/ha) was 100 and the “phytotoxicity rating AMARE” value ([24]; 250 g ai/ha) was 100. For the same compound, the “phytotoxicity rating ECHCG” value ([25]; 63 g ai/ha) was 40, the “phytotoxicity rating ECHCG” value ([25]; 250 g ai/ha) was 70 and the “phytotoxicity rating XANST” value ([26]; 63 g ai/ha) was 20. The “phytotoxicity rating XANST” value ([26]; 250 g ai/ha) was 70.

From patent publication US6770597B2, “Benzohydrazide derivatives as herbicides and desiccant compositions containing them” (Ishihara Sangyo Kaisha, Ltd., priority 2002, dated 2004)
